# Assay results published in the supplement of paper PMC10307832.
# What was measured:
# Assay in all cases: relative viability (nuclei count vs DMSO), 5 days (fraction); higher = more cells survive
# [1] = system: 201T
# Method in brief: (§1)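 Dosing by pin tool came one day after lung cancer cell lines were seeded in 1536-well plates, using either one drug or a fixed anchor-drug dose plus five library-drug doses (not always all listed) in √10 steps. After 5 days, nuclei were counted on 4× images. Relative viability is treated-well nuclei count divided by vehicle-well nuclei count, and values are medians of duplicate plates.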
# [2] = system: A-427
# Method in brief: as §1
# [3] = system: COR-L23
# Method in brief: as §1
# [4] = system: H3255
# Method in brief: as §1
# [5] = system: HCC-44
# Method in brief: as §1
# [6] = system: LC-2-ad
# Method in brief: as §1
# [7] = system: LCLC-97TM1
# Method in brief: as §1
# [8] = system: LK-2
# Method in brief: as §1
# [9] = system: LU99A
# Method in brief: as §1
# [10] = system: NCI-H1650
# Method in brief: as §1
# [11] = system: NCI-H1793
# Method in brief: as §1
# [12] = system: NCI-H2228
# Method in brief: as §1
# [13] = system: NCI-H2347
# Method in brief: as §1
# [14] = system: NCI-H23
# Method in brief: as §1
# [15] = system: NCI-H460
# Method in brief: as §1
# [16] = system: NCI-H596
# Method in brief: as §1
# [17] = system: NCI-H727
# Method in brief: as §1
# [18] = system: PC-14
# Method in brief: as §1
# [19] = system: PC-3 [JPC-3]
# Method in brief: as §1
# [20] = system: SW 1573
# Method in brief: as §1
smiles,measurement,setting,value
O=c1cc(-c2cccc3c2Sc2ccccc2S3)oc(N2CCOCC2)c1 + CC1(C)CCC(c2ccc(Cl)cc2)=C(CN2CCN(c3ccc(C(=O)NS(=O)(=O)c4ccc(N[C@H](CCN5CCOCC5)CSc5ccccc5)c(S(=O)(=O)C(F)(F)F)c4)cc3)CC2)C1 [Navitoclax] (partner 0.5 µM),relative viability,[1]; first compound 0.08 µM,1.15
same,relative viability,[1]; first compound 0.253 µM,1.2
same,relative viability,[1]; first compound 0.8 µM,1.23
same,relative viability,[1]; first compound 2.53 µM,1.2
same,relative viability,[1]; first compound 8 µM,1.15
same,relative viability,[2]; first compound 0.08 µM,0.962
same,relative viability,[2]; first compound 0.253 µM,0.909
same,relative viability,[2]; first compound 0.8 µM,1.07
same,relative viability,[2]; first compound 2.53 µM,0.906
same,relative viability,[2]; first compound 8 µM,0.934
same,relative viability,[3]; first compound 0.08 µM,1.26
same,relative viability,[3]; first compound 0.253 µM,1.4
same,relative viability,[3]; first compound 0.8 µM,1.07
same,relative viability,[3]; first compound 2.53 µM,1.2
same,relative viability,[3]; first compound 8 µM,1.47
same,relative viability,[4]; first compound 0.08 µM,0.55
same,relative viability,[4]; first compound 0.253 µM,0.468
same,relative viability,[4]; first compound 0.8 µM,0.474
same,relative viability,[4]; first compound 2.53 µM,0.61
same,relative viability,[4]; first compound 8 µM,0.698
same,relative viability,[5]; first compound 0.08 µM,0.916
same,relative viability,[5]; first compound 0.253 µM,1.2
same,relative viability,[5]; first compound 0.8 µM,0.859
same,relative viability,[5]; first compound 2.53 µM,0.96
same,relative viability,[5]; first compound 8 µM,0.905
same,relative viability,[6]; first compound 0.08 µM,0.363
same,relative viability,[6]; first compound 0.253 µM,0.666
same,relative viability,[6]; first compound 0.8 µM,0.375
same,relative viability,[6]; first compound 2.53 µM,0.421
same,relative viability,[6]; first compound 8 µM,0.403
same,relative viability,[7]; first compound 0.08 µM,0.425
same,relative viability,[7]; first compound 0.253 µM,0.597
same,relative viability,[7]; first compound 0.8 µM,0.374
same,relative viability,[7]; first compound 2.53 µM,0.329
same,relative viability,[7]; first compound 8 µM,0.372
same,relative viability,[8]; first compound 0.08 µM,0.861
same,relative viability,[8]; first compound 0.253 µM,1.03
same,relative viability,[8]; first compound 0.8 µM,0.992
same,relative viability,[8]; first compound 2.53 µM,0.808
same,relative viability,[8]; first compound 8 µM,1.43
same,relative viability,[9]; first compound 0.08 µM,0.809
same,relative viability,[9]; first compound 0.253 µM,0.918
same,relative viability,[9]; first compound 0.8 µM,0.84
same,relative viability,[9]; first compound 2.53 µM,0.786
same,relative viability,[9]; first compound 8 µM,0.958
same,relative viability,[10]; first compound 0.08 µM,1.05
same,relative viability,[10]; first compound 0.253 µM,1.21
same,relative viability,[10]; first compound 0.8 µM,1.12
same,relative viability,[10]; first compound 2.53 µM,1.17
same,relative viability,[10]; first compound 8 µM,1.38
same,relative viability,[11]; first compound 0.08 µM,0.307
same,relative viability,[11]; first compound 0.253 µM,0.515
same,relative viability,[11]; first compound 0.8 µM,0.344
same,relative viability,[11]; first compound 2.53 µM,0.362
same,relative viability,[11]; first compound 8 µM,0.356
same,relative viability,[12]; first compound 0.08 µM,1.17
same,relative viability,[12]; first compound 0.253 µM,0.902
same,relative viability,[12]; first compound 0.8 µM,0.818
same,relative viability,[12]; first compound 2.53 µM,0.87
same,relative viability,[12]; first compound 8 µM,0.852
same,relative viability,[13]; first compound 0.08 µM,0.855
same,relative viability,[13]; first compound 0.253 µM,1.08
same,relative viability,[13]; first compound 0.8 µM,0.799
same,relative viability,[13]; first compound 2.53 µM,0.839
same,relative viability,[13]; first compound 8 µM,0.969
same,relative viability,[14]; first compound 0.08 µM,0.829
same,relative viability,[14]; first compound 0.253 µM,1.01
same,relative viability,[14]; first compound 0.8 µM,0.879
same,relative viability,[14]; first compound 2.53 µM,0.725
same,relative viability,[14]; first compound 8 µM,0.884
same,relative viability,[15]; first compound 0.08 µM,1.24
same,relative viability,[15]; first compound 0.8 µM,1.42
same,relative viability,[15]; first compound 2.53 µM,1.23
same,relative viability,[16]; first compound 0.08 µM,0.843
same,relative viability,[16]; first compound 0.253 µM,1.3
same,relative viability,[16]; first compound 0.8 µM,1.09
same,relative viability,[16]; first compound 2.53 µM,1.09
same,relative viability,[16]; first compound 8 µM,1.14
same,relative viability,[17]; first compound 0.253 µM,0.356
same,relative viability,[17]; first compound 2.53 µM,0.369
same,relative viability,[17]; first compound 8 µM,0.494
same,relative viability,[18]; first compound 0.08 µM,1.04
same,relative viability,[18]; first compound 0.253 µM,1.31
same,relative viability,[18]; first compound 0.8 µM,1.01
same,relative viability,[18]; first compound 2.53 µM,0.946
same,relative viability,[18]; first compound 8 µM,1.05
same,relative viability,[19]; first compound 0.08 µM,0.836
same,relative viability,[19]; first compound 0.253 µM,0.779
same,relative viability,[19]; first compound 0.8 µM,0.897
same,relative viability,[19]; first compound 2.53 µM,0.767
same,relative viability,[19]; first compound 8 µM,0.992
same,relative viability,[20]; first compound 0.08 µM,0.999
same,relative viability,[20]; first compound 0.253 µM,1.14
same,relative viability,[20]; first compound 0.8 µM,1.04
same,relative viability,[20]; first compound 2.53 µM,1.12
same,relative viability,[20]; first compound 8 µM,1.17
